The values below come from patent publication US20060167057A1, “Compounds for the treatment of CNS and amyloid associated diseases” (priority 2004, published 2006).

In the test the target is T1, L1 transport system (large neutral amino acid carrier, L1-system carrier) (Rattus norvegicus, UniProt Q63016).
T1 construct: functionality of their endogenous transporters such as the L1-system carrier; endogenous in cells; host or cells: rat primary cerebrovascular (brain microcapillary) endothelial cells, RBEC
T1 sequence (Q63016 whole entry): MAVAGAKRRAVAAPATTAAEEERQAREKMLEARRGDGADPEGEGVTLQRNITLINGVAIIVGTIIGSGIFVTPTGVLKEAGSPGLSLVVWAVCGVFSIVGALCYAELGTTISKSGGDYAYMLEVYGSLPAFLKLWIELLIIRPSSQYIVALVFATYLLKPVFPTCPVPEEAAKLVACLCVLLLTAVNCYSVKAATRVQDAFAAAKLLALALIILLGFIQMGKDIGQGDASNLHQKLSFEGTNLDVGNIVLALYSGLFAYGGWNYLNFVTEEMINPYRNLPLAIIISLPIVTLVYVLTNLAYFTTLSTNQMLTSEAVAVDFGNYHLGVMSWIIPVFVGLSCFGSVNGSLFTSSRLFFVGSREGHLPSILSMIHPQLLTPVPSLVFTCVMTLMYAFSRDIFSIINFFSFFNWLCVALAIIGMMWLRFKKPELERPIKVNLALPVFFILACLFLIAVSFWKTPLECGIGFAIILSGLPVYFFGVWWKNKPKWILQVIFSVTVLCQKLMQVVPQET
T1 sequence (Q794F9 whole entry partner): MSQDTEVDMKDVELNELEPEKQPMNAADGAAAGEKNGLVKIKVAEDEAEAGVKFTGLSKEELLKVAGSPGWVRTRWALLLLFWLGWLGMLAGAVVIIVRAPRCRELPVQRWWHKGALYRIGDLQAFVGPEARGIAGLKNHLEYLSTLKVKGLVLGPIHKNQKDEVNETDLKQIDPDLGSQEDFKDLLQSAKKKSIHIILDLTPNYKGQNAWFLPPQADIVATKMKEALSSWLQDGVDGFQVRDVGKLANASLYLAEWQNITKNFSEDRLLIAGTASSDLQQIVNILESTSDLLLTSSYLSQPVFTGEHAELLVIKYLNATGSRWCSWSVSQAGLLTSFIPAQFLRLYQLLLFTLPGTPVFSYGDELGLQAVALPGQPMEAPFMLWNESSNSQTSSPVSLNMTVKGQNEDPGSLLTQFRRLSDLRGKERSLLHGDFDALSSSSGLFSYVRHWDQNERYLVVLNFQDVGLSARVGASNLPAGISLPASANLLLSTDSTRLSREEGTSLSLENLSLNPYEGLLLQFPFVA
Description: Competitive binding assay to the brain L1 transport system (L-[U-14C]phenylalanine on rat primary cerebrovascular endothelial cells). Here is the method: Compound samples in PBS (without Ca^+2, Mg^+2)-glucose 30 mM-HEPES 10 mM—DMSO 1% as prepared in Example 1 were thawed and left for at least 30 minutes at 20-23° C. before preparation of the following sub-dilutions for the competitive binding assay: • 200 μL of the stock solution were added to 800 μL PBS (without Ca^+2, Mg^+2)-Glucose-HEPES-1% DMSO (PBSD-1) [diluted 1:5 for a final 1:5 dilution] • 100 μL (1/5 dilution above) were added to 900 μL PBSD-1 [diluted 1:10 for a final 1:50 dilution] • 100 μL (1/50 dilution above) were added to 900 μL PBSD-1 [diluted 1:10 for a final 1:500 dilution]
These sub-dilutions were used immediately or stored overnight at 4° C. before the competitive binding assay. A volume of 45 μL of each of the compound dilutions (1:5, 1:50, 1:500) in PBSD-1 was added to the appropriate wells in the dilution plate.
Brains from sixty 24-day-old rats were dissected individually on a sterile lint moistened with ice cold Hanks' balanced salt solution (Gibco BRL, Grand Island, N.Y.) containing 10 mM HEPES (medium 1) supplemented with 0.1% BSA. Cerebellum, striatum, optic nerves, and brain stem (white matter) were removed. After a mid-sagittal section of the brain, the meninges and leptomeningeal debris were removed by rolling a sterile dry cotton swab on the cortices. (Ichikawa N, Naora K, Hirano H, Hashimoto M, Masumura S, and Iwamoto K (1996). Isolation and primary culture of rat cerebral microvascular endothelial cells for studying drug transport in vitro. J Pharmacol Toxicol Meth 36: 45-52.). Clean cortices were minced in pieces of ≈2 mm^3 in 15 mL of ice-cold medium 1-0.1% BSA. The preparation was divided into 4 sterile pre-weighed tubes and centrifuged at 330× g at 20-25° C. for 5 min. Tubes were weighed and pre-warmed (37° C.) and medium 1 with 0.5% BSA containing 0.3% collagenase and 10 μg/mL DNAse 1 (Roche, Laval, Quebec, Canada) were added to each tube (1 mL/g of tissue).
The brain-collagenase mixture was vigorously agitated in a water bath at 37° C. for 90 min. Fifteen min before the end of the digestion, the tissue was homogenized using a 10-mL pipette until a creamy mixture was obtained (≈20 aspirations). Cells were washed by adding medium 1 with 0.1% BSA to the homogenate (26 mL/tube) and centrifuged at 100× g at 20-25° C. for 7 min. This washing step was repeated 3 more times, once for 5 min and twice for 3 min. Each pellet was re-suspended in 25 mL of a 15% dextran solution prepared in medium 1 with 0.1% BSA and centrifuged at 3200× g at 4° C. for 25 min to isolate vessels from neural tissue and dextran layers. Vascular pellets were re-suspended in 5 mL Ca^++—Mg^++-free-medium 1 with 0.1% BSA (medium 2) at 20-25° C. and transferred in a 50-mL tube. Remaining vessels were collected by rinsing the tubes and pooling the rinsing suspension. (Rupnick M A, Carey A, and Williams S K (1988). Phenotypic diversity in cultured cerebral microvascular endothelial cells in vitro. Cell Develop Biol 24: 435-444.)
The vascular preparation was filtered and rinsed (20 mL of medium 2) through a sterile 355-μm mesh. The 355-μm filtrate was sequentially filtered twice (20 mL of medium 2) through sterile 112-μm meshes and rinsed (Stanimirovic D B, Wong J, Ball R, and Durkin J P (1995). Free radical-induced endothelial membrane dysfunction at the site of the blood-brain barrier: relationship between lipid peroxidation, Na,K-ATPase activity, and ^51Cr release. Neurochem Res 20:1417-1427.) and the latter filtrate was filtered and rinsed through a sterile 20-μm mesh. A final step of filtration and rinse was repeated through a double layer of 20-μm meshes. All 20-μm meshes, which retained the microcapillaries, were then transferred into a 50-mL tube containing 20 mL of a 0.1% collagenase/dispase (Roche) solution in medium 2 supplemented with 10 μg/mL DNAse 1 and 0.147 μg/mL tosyl-lysine-chloromethyl-ketone (Sigma Chemical Co., Oakville, Ontario, Canada) (medium 3).

In the case of `NC(Cc1cccc(CN2CCN(c3cccc(Cl)c3)CC2)c1)C(=O)O` (stereo not drawn) [Compound 71], the “Comparison with the Binding of Phenylalanine” value (“Comparison with the Binding” below) by setting is: (10^−4 M) 0 (X < 0 Rank 0); (10^−5 M) 0 (X < 0 Rank 0); (10^−6 M) 1 (0 < X < 10 Rank 1).
For `CCOC(=O)c1c[nH]c(Sc2cccc(-c3cccc(CC(N)C(=O)O)c3)c2)nc1=O` (stereo not drawn) [Compound 72], the “Comparison with the Binding” value is 1 (0 < X < 10 Rank 1) (10^−4 M), 2 (10 < X < 20 Rank 2) (10^−5 M) and 1 (0 < X < 10 Rank 1) (10^−6 M).
For `CN(C)CCn1nnnc1SCc1cccc(CC(N)C(=O)O)c1` (stereo not drawn) [Compound 73], the “Comparison with the Binding” value is, setting by setting: (10^−4 M) 1 (0 < X < 10 Rank 1); (10^−5 M) 3 (X > 20 Rank 3); (10^−6 M) 1 (0 < X < 10 Rank 1).
Consider `NC(Cc1cccc(-c2cccc(Sc3nc(-c4ccccc4)c(-c4ccccc4)[nH]3)c2)c1)C(=O)O` (stereo not drawn) [Compound 74], for which the “Comparison with the Binding” value (10^−4 M) is 0 (X < 0 Rank 0), the “Comparison with the Binding” value (10^−5 M) is 1 (0 < X < 10 Rank 1) and the “Comparison with the Binding” value (10^−6 M) was 1 (0 < X < 10 Rank 1).
Consider `NC(Cc1cccc(CN2CCN(c3ccc(F)cc3)CC2)c1)C(=O)O` (stereo not drawn) [Compound 75], for which the “Comparison with the Binding” value (10^−4 M) is 0 (X < 0 Rank 0), the “Comparison with the Binding” value (10^−5 M) is reported as 0 (X < 0 Rank 0) and the “Comparison with the Binding” value (10^−6 M) is given as 1 (0 < X < 10 Rank 1).
With `COc1ccc2[nH]c(Sc3cccc(-c4cccc(CC(N)C(=O)O)c4)c3)nc2c1` (stereo not drawn) [Compound 76], the “Comparison with the Binding” value is, setting by setting: (10^−4 M) 0 (X < 0 Rank 0); (10^−5 M) 0 (X < 0 Rank 0); (10^−6 M) 1 (0 < X < 10 Rank 1).
As to `NC(Cc1cccc(CSc2nc3cc([N+](=O)[O-])ccc3[nH]2)c1)C(=O)O` (stereo not drawn) [Compound 79], the “Comparison with the Binding” value is listed as 2 (10 < X < 20 Rank 2) (10^−4 M), 3 (X > 20 Rank 3) (10^−5 M) and 0 (X < 0 Rank 0) (10^−6 M).
The corresponding values for `Cc1nnc(SCc2cccc(CC(N)C(=O)O)c2)s1` (stereo not drawn) [Compound 81] are 2 (10 < X < 20 Rank 2), 3 (X > 20 Rank 3) and 0 (X < 0 Rank 0).
For `Cn1cnnc1Sc1cccc(-c2cccc(CC(N)C(=O)O)c2)c1` (stereo not drawn) [Compound 82], in that order: 2 (10 < X < 20 Rank 2), 3 (X > 20 Rank 3) and 1 (0 < X < 10 Rank 1).
For `NC(Cc1cccc(CN2CCN(c3cccc(Cl)c3)CC2)n1)C(=O)O` (stereo not drawn) [Compound 86], in that order: 1 (0 < X < 10 Rank 1), 2 (10 < X < 20 Rank 2) and 1 (0 < X < 10 Rank 1).
As to `CCOC(=O)c1c[nH]c(SCc2ccc(-c3ccc(CC(N)C(=O)O)cc3)cc2)nc1=O` (stereo not drawn) [Compound 87], the “Comparison with the Binding” value is recorded as 2 (10 < X < 20 Rank 2) (10^−4 M), 3 (X > 20 Rank 3) (10^−5 M) and 3 (X > 20 Rank 3) (10^−6 M).
Consider `CN(C)CCn1nnnc1SCc1cccc(CC(N)C(=O)O)n1` (stereo not drawn) [Compound 88], for which the “Comparison with the Binding” value is 1 (0 < X < 10 Rank 1) (10^−4 M), 1 (0 < X < 10 Rank 1) (10^−5 M) and 1 (0 < X < 10 Rank 1) (10^−6 M).
Consider `NC(Cc1ccc(-c2ccc(CSc3nc(-c4ccccc4)c(-c4ccccc4)[nH]3)cc2)cc1)C(=O)O` (stereo not drawn) [Compound 89], for which the “Comparison with the Binding” value (10^−4 M) is 1 (0 < X < 10 Rank 1), the “Comparison with the Binding” value (10^−5 M) was 1 (0 < X < 10 Rank 1) and the “Comparison with the Binding” value (10^−6 M) was 1 (0 < X < 10 Rank 1).
`COc1ccc2[nH]c(SCc3ccc(-c4ccc(CC(N)C(=O)O)cc4)cc3)nc2c1` (stereo not drawn) [Compound 91]: the “Comparison with the Binding” value reads like this: (10^−4 M) 1 (0 < X < 10 Rank 1); (10^−5 M) 1 (0 < X < 10 Rank 1); (10^−6 M) 0 (X < 0 Rank 0).
Turning to `Cc1nc(SCc2cccc(CC(N)C(=O)O)n2)sc1CC(=O)O` (stereo not drawn) [Compound 92], the “Comparison with the Binding” value (10^−4 M) is on record as 0 (X < 0 Rank 0), the “Comparison with the Binding” value (10^−5 M) is 0 (X < 0 Rank 0) and the “Comparison with the Binding” value (10^−6 M) is reported as 1 (0 < X < 10 Rank 1).
As for `NC(Cc1ccc(-c2ccc(CSc3ncccc3C(=O)O)cc2)cc1)C(=O)O` (stereo not drawn) [Compound 93], the “Comparison with the Binding” value (10^−4 M) is recorded as 0 (X < 0 Rank 0), the “Comparison with the Binding” value (10^−5 M) is listed as 0 (X < 0 Rank 0) and the “Comparison with the Binding” value (10^−6 M) is listed as 1 (0 < X < 10 Rank 1).
As to `NC(Cc1cccc(CSc2nc3cc([N+](=O)[O-])ccc3[nH]2)n1)C(=O)O` (stereo not drawn) [Compound 94], the “Comparison with the Binding” value is, setting by setting: (10^−4 M) 1 (0 < X < 10 Rank 1); (10^−5 M) 1 (0 < X < 10 Rank 1); (10^−6 M) 1 (0 < X < 10 Rank 1).
Regarding `NC(Cc1ccc(-c2ccc(CSc3ncccn3)cc2)cc1)C(=O)O` (stereo not drawn) [Compound 95], the “Comparison with the Binding” value (10^−4 M) is given as 2 (10 < X < 20 Rank 2), the “Comparison with the Binding” value (10^−5 M) is on record as 3 (X > 20 Rank 3) and the “Comparison with the Binding” value (10^−6 M) was 2 (10 < X < 20 Rank 2).
Consider `Cc1nnc(SCc2cccc(CC(N)C(=O)O)n2)s1` (stereo not drawn) [Compound 96], for which the “Comparison with the Binding” value is given as 0 (X < 0 Rank 0) (10^−4 M), 1 (0 < X < 10 Rank 1) (10^−5 M) and 1 (0 < X < 10 Rank 1) (10^−6 M).
On to `Cn1cnnc1SCc1ccc(-c2ccc(CC(N)C(=O)O)cc2)cc1` (stereo not drawn) [Compound 97], for which the “Comparison with the Binding” value (10^−4 M) is on record as 2 (10 < X < 20 Rank 2), the “Comparison with the Binding” value (10^−5 M) was 3 (X > 20 Rank 3) and the “Comparison with the Binding” value (10^−6 M) is listed as 2 (10 < X < 20 Rank 2).
Regarding `NC(Cc1cccc(CN2CCN(c3ccccn3)CC2)n1)C(=O)O` (stereo not drawn) [Compound 98], the “Comparison with the Binding” value (10^−4 M) is listed as 0 (X < 0 Rank 0), the “Comparison with the Binding” value (10^−5 M) is on record as 1 (0 < X < 10 Rank 1) and the “Comparison with the Binding” value (10^−6 M) is 0 (X < 0 Rank 0).
`NC(Cc1ccc(-c2ccc(CN3CCN(c4ncccn4)CC3)cc2)cc1)C(=O)O` (stereo not drawn) [Compound 99]: the “Comparison with the Binding” value reads like this: (10^−4 M) 0 (X < 0 Rank 0); (10^−5 M) 0 (X < 0 Rank 0); (10^−6 M) 1 (0 < X < 10 Rank 1).
Turning to `NC(Cc1cccc(-c2cccc(N3CCN(c4cccc(Cl)c4)CC3)c2)c1)C(=O)O` (stereo not drawn) [Compound 101], the “Comparison with the Binding” value (10^−4 M) was 2 (10 < X < 20 Rank 2), the “Comparison with the Binding” value (10^−5 M) is reported as 3 (X > 20 Rank 3) and the “Comparison with the Binding” value (10^−6 M) is reported as 3 (X > 20 Rank 3).
For the compound `N#CC1(c2ccccc2)CCN(Cc2cccc(CC(N)C(=O)O)c2)CC1` (stereo not drawn) [Compound 102], the “Comparison with the Binding” value (10^−4 M) is recorded as 1 (0 < X < 10 Rank 1), the “Comparison with the Binding” value (10^−5 M) is 1 (0 < X < 10 Rank 1) and the “Comparison with the Binding” value (10^−6 M) is on record as 0 (X < 0 Rank 0).
